The text below walks through data of US8445476B2, “Carbacephem β-lactam antibiotics” (Achaogen, Inc., priority 2007, dated 2013).

Molecules are shown by their SMILES. ≈ marks a conversion by molar mass, not a printed value.

Assay type in all cases: cell-based
Test [1] has as its system S. aureus ASAU001 (Susceptible Organism ATCC 29213). Briefly: MIC assay, S. aureus ASAU001. The note with it: Staphylococcus aureus, ATCC29213, read-out: MIC ASAU 001. On the procedure: (§1) The in vitro MIC for bacterial isolates may be obtained in the following manner: a test compound is incorporated into a series of two-fold dilutions in cation adjusted Mueller-Hinton broth (CAMHB). Different bacterial strains diluted to provide a uniform inoculum are added to the CAMHB containing test compounds. A well without test compound is included for each strain as a growth control. […] The procedures used in these experiments are generally those standardized by the Clinical and Laboratory Standards Institute (CLSI), as set forth in the CLSI publication entitled “M7-A7. Methods for dilution antimicrobial susceptibility tests for bacteria that grow aerobically; approved standard-seventh edition.” (2006), which is incorporated by reference as if fully set forth herein. The following exemplifies such a procedure although it is to be understood that modifications of the procedure may be implemented as required.
(§2) Two-fold dilutions of the test compounds are prepared in CAMHB at 2× the concentration range to be tested if the compounds are soluble in aqueous solution. Alternately, dimethylsulfoxide (DMSO) is used to prepare two-fold dilutions at 10× the concentration range to be tested. Reference drugs such as cefotaxime, vancomycin or imipenem are used as positive controls. A few isolated colonies are retrieved from a pure culture prepared on an agar plate and suspended in PBS until the turbidity of the suspension matches a 0.5 McFarland standard which is equal to approximately 10^8 sCFU/mL. This solution is further diluted in CAMHB to 10^6CFU/mL if compounds are diluted in CAMHB and 5×10^5 CFU/mL if compounds are diluted in DMSO. The CAMHB plates containing the compound dilutions are combined in equal volumes with the higher density inoculum, or 10 μL of the DMSO dilutions are added to the lower density inoculum. When S. aureus is the organism being tested and the compound is oxacillin, a beta-lactam or a carbacephem compound of the present invention, 2% NaCl is added to the growth media. The plates are then incubated for 16-20 hours at 35° C. The plates are then observed to determine which concentration of the test compound is the MIC.

The subject of test [2] is S. aureus ASAU1028 (CA-MRSA, USA400). As to the kind of experiment: MIC assay, S. aureus ASAU1028. The note with it: Staphylococcus aureus, read-out: MIC ASAU 1028. Here is the method:
as §1, §2

The test system of test [3] is S. aureus ASAU1029 (CA-MRSA, USA300). Briefly: MIC assay, S. aureus ASAU1029. The note with it: Staphylococcus aureus, read-out: MIC ASAU 1029. Here is the method:
as §1, §2

Test [4] relates to S. aureus ASAU1043 (MRSA, CIP, ERY, CLI, GEN resistant). As to the kind of experiment: MIC assay, S. aureus ASAU1043. Conditions: Staphylococcus aureus, read-out: MIC ASAU 1043. Here is the method: as §1, §2
For test [5], the system named is S. aureus ASAU1033 (MRSA, CIP, ERY, CLIN, TET, GEN resistant). As to the kind of experiment: MIC assay, S. aureus ASAU1033. The note with it: Staphylococcus aureus, read-out: MIC ASAU 1033. Here is the method:
as §1, §2

`Nc1nc(/C(=N/O)C(=O)N[C@@H]2C(=O)N3C(C(=O)O)=C(Sc4cccnc4N)CC[C@H]23)c(Cl)s1` [28/1, (6R,7S,Z)-7-(2-(2-amino-5-chlorothiazol-4-yl)-2-(hydroxyimino)acetamido)-3-(2-aminopyridin-3-ylthio)-8-oxo-1-aza-bicyclo[4.2.0]oct-2-ene-2-carboxylic Acid]: the MIC was at most 1 µg/mL in test [1]; at most 1 µg/mL in test [2]; 1 to 8 µg/mL (≈ 1.96 to 15.7 µM) in test [3]; above 8 µg/mL in test [4]; above 8 µg/mL in test [5].
As for `CNCCSCc1ncccc1SC1=C(C(=O)O)N2C(=O)[C@@H](NC(=O)/C(=N\O)c3nc(N)sc3Cl)[C@H]2CC1` [29/1, (6R,7S,Z)-7-(2-(2-amino-5-chlorothiazol-4-yl)-2-(hydroxyimino)acetamido)-3-(2-((2-(methylamino)ethylthio)methyl)pyridin-3-ylthio)-8-oxo-1-aza-bicyclo[4.2.0]oct-2-ene-2-carboxylic acid], the MIC in test [1] is at most 1 µg/mL; in test [2], at most 1 µg/mL; in test [3], at most 1 µg/mL; in test [4], 1 to 8 µg/mL (≈ 1.67 to 13.4 µM); in test [5], 1 to 8 µg/mL (≈ 1.67 to 13.4 µM).
Turning to `Nc1nc(/C(=N/O)C(=O)N[C@@H]2C(=O)N3C(C(=O)O)=C(Sc4cccnc4CSC4CCNC4)CC[C@H]23)c(Cl)s1` (stereo partly drawn) [30/1, (6R,7S,Z)-7-(2-(2-amino-5-chlorothiazol-4-yl)-2-(hydroxyimino)acetamido)-8-oxo-3-(2-((pyrrolidin-3-ylthio)methyl)pyridin-3-ylthio)-1-aza-bicyclo[4.2.0]oct-2-ene-2-carboxylic acid], the MIC in test [1] is at most 1 µg/mL; in test [2], at most 1 µg/mL; in test [3], at most 1 µg/mL; in test [4] it was 1 to 8 µg/mL (≈ 1.64 to 13.1 µM); in test [5] it was 1 to 8 µg/mL (≈ 1.64 to 13.1 µM).
On to `NCc1ncccc1SC1=C(C(=O)O)N2C(=O)[C@@H](NC(=O)/C(=N\O)c3nc(N)sc3Cl)[C@H]2CC1` [31/1, (6R,7S,Z)-7-(2-(2-amino-5-chlorothiazol-4-yl)-2-(hydroxyimino)acetamido)-3-(2-(aminomethyl)pyridin-3-ylthio)-8-oxo-1-aza-bicyclo[4.2.0]oct-2-ene-2-carboxylic Acid], for which the MIC in test [1] was at most 1 µg/mL; in test [2], at most 1 µg/mL; in test [3], at most 1 µg/mL; in test [4], 1 to 8 µg/mL (≈ 1.91 to 15.3 µM); in test [5], 1 to 8 µg/mL (≈ 1.91 to 15.3 µM).
Regarding `NCCc1ncccc1SC1=C(C(=O)O)N2C(=O)[C@@H](NC(=O)/C(=N\O)c3nc(N)sc3Cl)[C@H]2CC1` [32/1, (6R,7S,Z)-7-(2-(2-amino-5-chlorothiazol-4-yl)-2-(hydroxyimino)acetamido)-3-(2-(2-aminoethyl)pyridin-3-ylthio)-8-oxo-1-aza-bicyclo[4.2.0]oct-2-ene-2-carboxylic Acid], the MIC was at most 1 µg/mL in test [1], above 8 µg/mL in test [3], above 8 µg/mL in test [4] and 1 to 8 µg/mL (≈ 1.86 to 14.9 µM) in test [5].
Take `Nc1nc(/C(=N/O)C(=O)N[C@@H]2C(=O)N3C(C(=O)O)=C(Sc4cccnc4)CC[C@H]23)c(Cl)s1` [34/1, (6R,7S,Z)-7-(2-(2-amino-5-chlorothiazol-4-yl)-2-(hydroxyimino)acetamido)-8-oxo-3-(pyridin-3-ylthio)-1-aza-bicyclo[4.2.0]oct-2-ene-2-carboxylic Acid]: the MIC is at most 1 µg/mL in test [1]; 1 to 8 µg/mL (≈ 2.02 to 16.2 µM) in test [2]; above 8 µg/mL in test [3]; above 8 µg/mL in test [4]; above 8 µg/mL in test [5].
As to `CO/N=C(\C(=O)N[C@@H]1C(=O)N2C(C(=O)O)=C(Sc3ccncc3)CC[C@H]12)c1nc(N)sc1Cl` [37/1, (6R,7S,Z)-7-(2-(2-amino-5-chlorothiazol-4-yl)-2-(methoxyimino)acetamido)-8-oxo-3-(pyridin-4-ylthio)-1-aza-bicyclo[4.2.0]oct-2-ene-2-carboxylic Acid], the MIC in test [1] was at most 1 µg/mL; in test [2] it was 1 to 8 µg/mL (≈ 1.96 to 15.7 µM); in test [3] it was above 8 µg/mL; in test [4], above 8 µg/mL; in test [5] it was 1 to 8 µg/mL (≈ 1.96 to 15.7 µM).
Turning to `CO/N=C(\C(=O)N[C@@H]1C(=O)N2C(C(=O)O)=C(Sc3nc(C)c(C)s3)CC[C@H]12)c1nc(N)sc1Cl` [38/1, (6R,7S,Z)-7-(2-(2-amino-5-chlorothiazol-4-yl)-2-(methoxyimino)acetamido)-3-(4,5-dimethylthiazol-2-ylthio)-8-oxo-1-aza-bicyclo[4.2.0]oct-2-ene-2-carboxylic Acid], the MIC in test [1] is at most 1 µg/mL; in test [2], at most 1 µg/mL; in test [3], at most 1 µg/mL; in test [4], above 8 µg/mL; in test [5] it was 1 to 8 µg/mL (≈ 1.84 to 14.7 µM).
Regarding `CO/N=C(\C(=O)N[C@@H]1C(=O)N2C(C(=O)O)=C(Sc3cccnc3CCN)CC[C@H]12)c1nc(N)sc1Cl` [39/1, (6R,7S,Z)-7-(2-(2-amino-5-chlorothiazol-4-yl)-2-(methoxyimino)acetamido)-3-(2-(2-aminoethyl)pyridin-3-ylthio)-8-oxo-1-aza-bicyclo[4.2.0]oct-2-ene-2-carboxylic Acid], the MIC is at most 1 µg/mL in test [1]; 1 to 8 µg/mL (≈ 1.81 to 14.5 µM) in test [2]; 1 to 8 µg/mL (≈ 1.81 to 14.5 µM) in test [3]; above 8 µg/mL in test [4]; above 8 µg/mL in test [5].
Regarding `CO/N=C(\C(=O)N[C@@H]1C(=O)N2C(C(=O)O)=C(Sc3cccnc3N)CC[C@H]12)c1nc(N)sc1Cl` [40/1, (6R,7S)-7-(2-(2-amino-5-chlorothiazol-4-yl)-2-(methoxyimino)acetamido)-3-(2-aminopyridin-3-ylthio)-8-oxo-1-aza-bicyclo[4.2.0]oct-2-ene-2-carboxylic acid], the MIC in test [1] is at most 1 µg/mL; in test [2] it was 1 to 8 µg/mL (≈ 1.91 to 15.3 µM); in test [3], above 8 µg/mL; in test [4], above 8 µg/mL; in test [5], above 8 µg/mL.
Consider `CNCCSCc1ncccc1SC1=C(C(=O)O)N2C(=O)[C@@H](NC(=O)/C(=N\OC)c3nc(N)sc3Cl)[C@H]2CC1` [41/1, (6R,7S,Z)-7-(2-(2-amino-5-chlorothiazol-4-yl)-2-(methoxyimino)acetamido)-3-(2-((2-(methylamino)ethylthio)methyl)pyridin-3-ylthio)-8-oxo-1-aza-bicyclo[4.2.0]oct-2-ene-2-carboxylic Acid], for which the minimal inhibitory concentration (MIC) in test [1] was at most 1 µg/mL; in test [2] it was 1 to 8 µg/mL (≈ 1.63 to 13.1 µM); in test [4], above 8 µg/mL; in test [5], above 8 µg/mL.
Regarding `CO/N=C(\C(=O)N[C@@H]1C(=O)N2C(C(=O)O)=C(Sc3cccnc3CN)CC[C@H]12)c1nc(N)sc1Cl` [43/1, (6R,7S,Z)-7-(2-(2-amino-5-chlorothiazol-4-yl)-2-(methoxyimino)acetamido)-3-(2-(aminomethyl)pyridin-3-ylthio)-8-oxo-1-aza-bicyclo[4.2.0]oct-2-ene-2-carboxylic acid], the MIC in test [1] was at most 1 µg/mL; in test [2], above 8 µg/mL; in test [3] it was above 8 µg/mL; in test [4], above 8 µg/mL; in test [5], above 8 µg/mL.
Take `Nc1nc(/C(=N/O)C(=O)N[C@@H]2C(=O)N3C(C(=O)O)=C(Sc4ccncc4)CC[C@H]23)ns1` [44/1, (6R,7S,Z)-7-(2-(5-amino-1,2,4-thiadiazol-3-yl)-2-(hydroxyimino)acetamido)-8-oxo-3-(pyridin-4-ylthio)-1-aza-bicyclo[4.2.0]oct-2-ene-2-carboxylic Acid]: the MIC was at most 1 µg/mL in test [1]; 1 to 8 µg/mL (≈ 2.17 to 17.3 µM) in test [2]; at most 1 µg/mL in test [3]; above 8 µg/mL in test [4]; above 8 µg/mL in test [5].
